According to patent publication US10221179B2, “Substituted pyrazoloquinazolinones and pyrroloquinazolinones as allosteric modulators of group II metabotropic glutamate receptors” (DOMAIN THERAPEUTICS, priority 2014, dated 2019):

Columns and labels:
human mGluR2 (hmGluR2) = target: T1, human mGluR2 (hmGluR2) (Homo sapiens, UniProt Q14416); assay: Ca++ functional assay, human mGluR2 transiently over-expressed in HEK-293 cells (agonist and negative allosteric modulator modes); type: cell-based; conditions: glutamate at EC80, intracellular calcium (Fluo4AM), read-out: hmGluR2 negative allosteric modulator activity IC50
T1 construct: expressed in transfected cells; host or cells: HEK-293 cells, transient co-transfection by electroporation
T1 sequence (Q14416 19-872): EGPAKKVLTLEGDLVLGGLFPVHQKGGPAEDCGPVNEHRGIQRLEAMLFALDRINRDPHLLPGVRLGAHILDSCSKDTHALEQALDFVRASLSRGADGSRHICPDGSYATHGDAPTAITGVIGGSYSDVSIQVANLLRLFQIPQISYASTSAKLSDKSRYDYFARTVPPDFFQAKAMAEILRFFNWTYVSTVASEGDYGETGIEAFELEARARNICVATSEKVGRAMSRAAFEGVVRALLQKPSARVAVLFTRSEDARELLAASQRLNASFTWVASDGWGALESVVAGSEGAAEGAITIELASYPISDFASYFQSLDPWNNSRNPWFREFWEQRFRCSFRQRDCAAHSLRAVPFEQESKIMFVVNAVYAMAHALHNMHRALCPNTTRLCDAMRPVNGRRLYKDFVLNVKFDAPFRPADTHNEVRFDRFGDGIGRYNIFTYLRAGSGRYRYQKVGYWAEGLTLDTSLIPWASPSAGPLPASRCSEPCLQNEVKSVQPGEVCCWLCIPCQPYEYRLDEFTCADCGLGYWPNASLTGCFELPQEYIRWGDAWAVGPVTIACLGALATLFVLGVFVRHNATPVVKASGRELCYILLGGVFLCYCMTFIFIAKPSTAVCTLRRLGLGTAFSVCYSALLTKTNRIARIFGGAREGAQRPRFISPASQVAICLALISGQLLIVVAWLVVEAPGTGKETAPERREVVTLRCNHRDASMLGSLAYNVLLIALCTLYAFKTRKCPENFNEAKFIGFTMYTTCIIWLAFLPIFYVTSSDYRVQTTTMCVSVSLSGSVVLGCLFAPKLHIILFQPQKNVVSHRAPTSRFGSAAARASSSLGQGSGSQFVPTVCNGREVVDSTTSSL
Experimental: Example 127: Human mGluR2 and mGluR3 Evaluation Using Ca^++ Functional Assay
Examples of the present invention were tested successively for their agonist and negative allosteric modulator activities on human mGluR2 (hmGluR2) and mGluR3 (hmGluR3) transiently over-expressed in HEK-293 cells.
Cell Culture and Transfection
HEK-293 cells are maintained in Modified Eagle's Medium supplemented with 10% Foetal Calf Serum, 1% Penicillin/Streptomycin and 1% non-essential amino acids at 37° C./5% CO2.
Cells are co-transfected by electroporation with four DNA plasmids encoding hmGluR2 or hmGluR3, a chimeric G protein allowing redirection of the activation signal to intracellular calcium pathway (Brabet I et al., Neuropharmacology 37(8), 1043-51, 1998), and two glutamate transporters minimizing receptor desensitization by endogenous glutamate. After transfection, cells are cultured for 24 h at 37° C./5% CO2.
Calcium Assay IC50 Determination
Receptor activity is detected by changes in intracellular calcium measured using the fluorescent Ca^2+ sensitive dye, Fluo4AM (Molecular Probes).
On the day of the assay, culture medium is aspirated and replaced during 3 hours by medium without serum supplemented with 1% Glutamax, 1% Penicillin/Streptomycin and 1% non-essential amino acids. Then, cells are washed with freshly prepared buffer B (HBSS 1×(PAA), Hepes 20 mM, MgSO4-7H2O 1 mM, Na2CO3 3.3 mM, CaCl2-2H2O 1.3 mM, 0.1% BSA, Probenecid 2.5 mM) and loaded at 37° C. in 5% CO2 for 1.5 hours with buffer B containing 1 μM Fluo4AM, 0.1 mg/mL Pluronic Acid, 7 μg/mL Glutamate Pyruvate Transaminase and 2 mM sodium pyruvate. Afterwards cells are washed twice with buffer B. Then cells are detached using StemPro Accutase (Fischer Scientific), resuspended in buffer B and seeded in 384 well plate at a density of 30,000 cells per well. Addition of compounds and intracellular Ca^2+ measurements (excitation 485 nm, emission 525 nm) are performed by the fluorescence microplate reader FLIPRTetra (Molecular Devices).
Agonist and negative allosteric modulator activities of compounds are consecutively evaluated on the same cell plate. […] Then, cells are stimulated by an EC80 glutamate concentration and fluorescence is recorded for additional 3 minutes. EC80 glutamate concentration is the concentration giving 80% of the maximal glutamate response. Agonist or negative allosteric modulator activity(ies) are evaluated in comparison to basal signals evoked by buffer B or EC80 glutamate alone, respectively.
For IC50 determination, a dose-response test is performed using 20 concentrations (ranging over 6 logs) of each compound. Dose-response curves are fitted using the sigmoidal dose-response (variable slope) analysis in GraphPad Prism program (Graph Pad Inc) and IC50 of negative allosteric modulator activity is calculated. Dose-response experiments are performed in duplicate, two times independently.

melting point [°C] | IC50 (human mGluR2 (hmGluR2)) [µM] | Structure (SMILES)
> 250 | < 1 | CNC(=O)c1ccc2c(=O)n(C)c3cc(-c4ccnc(C(F)(F)F)c4)nn3c2c1 [Example 78, 4-Methyl-5-oxo-2-(2-trifluoromethyl-pyridin-4-yl)-4,5-dihydro-pyrazolo[1,5-a]quinazoline-8-carboxylic Acid Methylamide]
240 to 245 | < 1 | CCN(CC)C(=O)c1ccc2c(=O)n(C)c3cc(-c4ccnc(C(F)(F)F)c4)nn3c2c1 [Example 80, 4-Methyl-5-oxo-2-(2-trifluoromethyl-pyridin-4-yl)-4,5-dihydro-pyrazolo[1,5-a]quinazoline-8-carboxylic Acid Diethylamide]
> 250 | < 1 | Cn1c(=O)c2ccc(C(=O)N3CCOCC3)cc2n2nc(-c3ccnc(C(F)(F)F)c3)cc12 [Example 81, 4-Methyl-8-(morpholine-4-carbonyl)-2-(2-trifluoromethyl-pyridin-4-yl)-4H-pyrazolo[1,5-a]quinazolin-5-one]
> 250 | < 1 | Cn1c(=O)c2ccc(C(=O)N3CCCC3)cc2n2nc(-c3ccnc(C(F)(F)F)c3)cc12 [Example 82, 4-Methyl-8-(pyrrolidine-1-carbonyl)-2-(2-trifluoromethyl-pyridin-4-yl)-4H-pyrazolo[1,5-a]quinazolin-5-one]
> 250 | < 1 | Cn1c(=O)c2c(F)cccc2n2nc(-c3ccnc(C(F)(F)F)c3)cc12 [Example 85, 6-Fluoro-4-methyl-2-(2-trifluoromethyl-pyridin-4-yl)-4H-pyrazolo[1,5-a]quinazolin-5-one]
> 250 | < 1 | COc1cc2c(=O)n(C)c3cc(-c4ccnc(C(F)(F)F)c4)nn3c2cc1OC [Example 87, 7,8-Dimethoxy-4-methyl-2-(2-trifluoromethyl-pyridin-4-yl)-4H-pyrazolo[1,5-a]quinazolin-5-one]
> 206 | < 1 | Cn1c(=O)c2cc(F)c(F)cc2n2nc(-c3ccnc(C(F)(F)F)c3)cc12 [Example 88, 7,8-Difluoro-4-methyl-2-(2-trifluoromethyl-pyridin-4-yl)-4H-pyrazolo[1,5-a]quinazolin-5-one]
220 to 230 | < 1 | COc1cc2c(=O)n(C)c3cc(-c4ccnc(C(F)(F)F)c4)nn3c2cc1F [Example 89, 8-Fluoro-7-methoxy-4-methyl-2-(2-trifluoromethyl-pyridin-4-yl)-4H-pyrazolo[1,5-a]quinazolin-5-one]
> 250 | < 1 | COc1cc2c(=O)n(C)c3cc(-c4ccnc(C(F)(F)F)c4)nn3c2cc1N1CCC(O)CC1 [Example 90, 8-(4-Hydroxy-piperidin-1-yl)-7-methoxy-4-methyl-2-(2-trifluoromethyl-pyridin-4-yl)-4H-pyrazolo[1,5-a]quinazolin-5-one]
> 250 | < 1 | CN(C)c1cc2c(cc1F)c(=O)n(C)c1cc(-c3ccnc(C(F)(F)F)c3)nn21 [Example 91, 8-Dimethylamino-7-fluoro-4-methyl-2-(2-trifluoromethyl-pyridin-4-yl)-4H-pyrazolo[1,5-a]quinazolin-5-one]
172 to 180 | < 1 | COc1ccc2c(c1)c(=O)n(C)c1cc(-c3ccnc(OCC(F)(F)F)c3)nn21 [Example 102, 7-Methoxy-4-methyl-2-[2-(2,2,2-trifluoro-ethoxy)-pyridin-4-yl]-4H-pyrazolo[1,5-a]quinazolin-5-one]
> 250 | < 1 | Cn1c(=O)c2ccc(C(=O)N3CC(O)C3)cc2n2nc(-c3ccnc(C(F)(F)F)c3)cc12 [Example 110, 8-(3-Hydroxy-azetidine-1-carbonyl)-4-methyl-2-(2-trifluoromethyl-pyridin-4-yl)-4H-pyrazolo[1,5-a]quinazolin-5-one]
